Counter-ions that a name gives are not always drawn.
Assays:
[1] = animal cancer models; cited from earlier work
[2] = associated disease models; cited from earlier work
[3] = target: T1, SMOX (Homo sapiens (Human), UniProt Q9NWM0); assay: Human SMOX assay (HyPerBlu chemiluminescent detection of hydrogen peroxide); assay type: biochemical; conditions: 2.5 nM full length hSMOX, spermine substrate, 1 h at room temperature, luminescence read; read-out: SMOx_IC50
Outline: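 Full-length N-His human SMOX (2.5 nM, E. coli-expressed) was incubated 1 h at room temperature with 30 µM spermine, 11-point compound dilutions and 1.25% DMSO in pH 7.4 HEPES/NaCl/EGTA buffer. H2O2 was detected by HyPerBlu chemiluminescence after 30 min, and IC50 came from dose–response fits.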

[4] = target: hPAOX (Homo sapiens (Human), UniProt Q6QHF9); assay: Human PAOX assay (HyPerBlu chemiluminescent detection of hydrogen peroxide); assay type: biochemical; conditions: 60 pM recombinant PAOX, 20 μM N-acetylspermine substrate
Outline: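 His-tagged recombinant PAOX expressed in sf9 insect cells was used at 60 pM, with 20 μM N-acetylspermine as substrate. Hydrogen peroxide formed by the reaction was detected by chemiluminescence from a boronate probe (HyPerBlu). Inhibition appears as lower luminescence.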

[5] = target: T1, SMOX; assay: Cellular Thermal Shift Assay (CETSA) with alphaLISA detection of intact SMOX in A549 cells; assay type: cell-based; conditions: 1 hour compound incubation at 37° C., heated to 55° C. for 5 minutes
Text: The Cellular Thermal Shift Assay (CETSA) is a biophysical assay based on the principle of ligand-induced thermal stabilization of target proteins, meaning that a protein denaturing temperature will change upon ligand interaction. Thus, by heating samples (i.e. cells, ex vivo samples) to different temperatures, and quantifying conformationally intact proteins we can detect compound-protein interactions after compound treatment. CETSA allows direct monitoring of ligand binding to a specific target (target engagement). In our study, we have developed a suitable detection system that will detect intact SMOX using the alphaLISA. […] The detection of compound -SMOX ligand binding is performed using A549 cells. This adenocarcinoma human alveolar basal epithelial cell line expresses high levels of SMOX. Their use has been widely reported in the literature with respect to the investigation of the SMOX pathway. Using SMOX high-expressing cells with CETSA and alphaLISA systems provides the optimal platform for screening small molecules for SMOX inhibition.
A549 cells were seeded at a density of 0.05-0.1×10^6 cells/mL in T175 flasks and cultured in 25 mL of culture medium consisting in RPMI 1640 medium (Gibco) supplemented with 10% fetal bovine serum (Gibco). Cells were passaged twice per week and used for CETSA assays before reaching confluency. One day prior to the CETSA cells were seeded in 384-well white assay plates (Corning) at 15000 cells per well. Briefly, cells were washed with PBS (Life Technologies Europe BV) and dissociated by adding 2 mL TrypLE™ Select (Life Technologies Europe BV). After 5 min at 37° C., cells were resuspended in culture medium, counted using a ViCell XR cell counter (ViCell) and seeded in the 384-well plates.
Compounds were pre-diluted in PBS to a final concentration of […] and 1% DMSO and serially diluted in PBS 1% DMSO. For compound-cell incubation, medium in the 384 well plates was replaced with 30 μL of serially diluted compounds. After incubation at 37° C. for 1 hour the liquid was removed and plates were heated to 55° C. for 5 minutes and then transferred to ice for 5 minutes. After the cooling step, cells were lysed by adding 15 μL 1× alphaLISA-buffer (Perkin Elmer) containing anti-SMOX monoclonal antibody #2 and anti-SMOX Fab-fragment #33 mixture at a concentration of 5 and 0.5 nM respectively. After one hour at RT, 5 μL anti-6×His alphaLISA acceptor beads (50 mg/L, AL128C, Perkin Elmer) were added to the wells followed by an additional incubation of one hour at RT. Then 5 μL anti-rabbit IgG alpha donor beads (200 mg/L was added to the wells. After one hour incubation at RT the alpha signal was read using an alpha compatible reader. MDL75257 (M2949, Sigma) was used as positive control for compound-SMOX interaction. Compound-SMOX interaction is detected through the comparison of the high alpha signal of the negative control with the much lower signal of the wells that contain SMOX binding compounds.

T1 sequence (Q9NWM0 whole entry): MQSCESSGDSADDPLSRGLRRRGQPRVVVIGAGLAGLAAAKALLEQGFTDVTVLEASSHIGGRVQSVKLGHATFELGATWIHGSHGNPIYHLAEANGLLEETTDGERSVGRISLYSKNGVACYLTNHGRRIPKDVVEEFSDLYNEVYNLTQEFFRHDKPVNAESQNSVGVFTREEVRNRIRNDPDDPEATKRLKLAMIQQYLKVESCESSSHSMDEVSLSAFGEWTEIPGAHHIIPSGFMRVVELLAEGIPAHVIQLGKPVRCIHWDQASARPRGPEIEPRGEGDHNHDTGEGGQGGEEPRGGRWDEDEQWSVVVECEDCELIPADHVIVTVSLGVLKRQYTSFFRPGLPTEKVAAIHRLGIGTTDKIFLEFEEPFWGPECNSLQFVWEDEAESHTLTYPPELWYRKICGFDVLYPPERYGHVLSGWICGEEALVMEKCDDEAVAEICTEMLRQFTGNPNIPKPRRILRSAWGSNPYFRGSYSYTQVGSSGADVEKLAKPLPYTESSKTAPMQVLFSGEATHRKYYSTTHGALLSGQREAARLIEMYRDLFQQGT
hPAOX, sequence (Q6QHF9 whole entry): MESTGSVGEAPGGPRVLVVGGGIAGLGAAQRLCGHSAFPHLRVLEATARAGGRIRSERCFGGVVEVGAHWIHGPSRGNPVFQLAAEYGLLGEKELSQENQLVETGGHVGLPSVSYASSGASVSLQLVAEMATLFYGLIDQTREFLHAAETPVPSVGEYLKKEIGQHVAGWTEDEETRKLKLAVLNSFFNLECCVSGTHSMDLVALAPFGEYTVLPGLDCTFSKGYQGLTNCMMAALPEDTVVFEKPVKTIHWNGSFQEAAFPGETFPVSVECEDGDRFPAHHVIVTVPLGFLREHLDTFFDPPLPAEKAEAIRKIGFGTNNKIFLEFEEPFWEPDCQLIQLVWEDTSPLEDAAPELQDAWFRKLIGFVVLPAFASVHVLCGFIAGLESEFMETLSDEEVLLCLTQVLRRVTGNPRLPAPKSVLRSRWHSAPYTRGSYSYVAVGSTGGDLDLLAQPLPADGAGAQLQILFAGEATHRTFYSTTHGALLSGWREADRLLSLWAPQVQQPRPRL

IC50 [3] [nM] | IC50 [4] [nM] | SMOx % recovery CETSA [5] [%] | SMILES | cancer incidence [1] | neuronal death and retinal degeneration [2]
– | – | – | C=C=CCNCCCCNCC=C=C.Cl.Cl [MDL 72527, N^1,N^4-di-2,3-butadienyl-1,4-butanediamine dihydrochloride] | significantly reduced cancer incidence | reduced neuronal death and retinal degeneration
24 | 2190 | 40 | O=C(NCCCn1ccnc1)c1cc2nc(-c3ccccc3)cc(-c3ccc(F)cc3)n2n1 [Example 86, N-(3-(1H-imidazol-1-yl)propyl)-7-(4-fluorophenyl)-5-phenylpyrazolo[1,5-a]pyrimidine-2-carboxamide] | – | –
36 | 1410 | 0 | O=C(NCCCn1ccnc1)c1cc2nc(-c3ccccc3)cc(-c3cccc(F)c3)n2n1 [Example 78, N-(3-(1H-imidazol-1-yl)propyl)-7-(3-fluorophenyl)-5-phenylpyrazolo[1,5-a]pyrimidine-2-carboxamide] | – | –
117 | 8610 | 2 | CN1CCC(C)(CNC(=O)c2cc3nc(-c4ccccc4)cc(-c4ccccc4)n3n2)C1 (centres unmarked) [Example 21, N-((1,3-Dimethylpyrrolidin-3-yl)methyl)-5,7-diphenylpyrazolo[1,5-a]pyrimidine-2-carboxamide] | – | –
65 | 306 | 10 | O=C(NCC1CCc2nccn2C1)c1cc2nc(-c3ccccc3)cc(-c3ccccc3)n2n1 (centres unmarked) [Example 20, 5,7-Diphenyl-N-((5,6,7,8-tetrahydroimidazo[1,2-a]pyridin-6-yl)methyl)pyrazolo[1,5-a]pyrimidine-2-carboxamide] | – | –
147 | 5880 | 39 | CN1CC(NC(=O)c2cc3nc(-c4ccccc4)cc(N4CCCCC4)n3n2)C1 [Example 68, N-(1-methylazetidin-3-yl)-5-phenyl-7-(piperidin-1-yl)pyrazolo[1,5-a]pyrimidine-2-carboxamide trifluoroacetate] | – | –
22 | 1270 | 24 | O=C(NCCCn1ccnc1)c1cc2nc(-c3ccccc3)cc(C3CCCCC3)n2n1 [Example 107, N-(3-(1H-imidazol-1-yl)propyl)-7-cyclohexyl-5-phenylpyrazolo[1,5-a]pyrimidine-2-carboxamide] | – | –
49 | 960 | 52 | CN1CC(NC(=O)c2cc3nc(-c4ccccc4)cc(-c4ccccc4)n3n2)C1 [Example 23, N-(1-Methylazetidin-3-yl)-5,7-diphenylpyrazolo[1,5-a]pyrimidine-2-carboxamide] | – | –
